Results reported in US11857529B2, “Methods for treating melanoma” (Olatec Therageutics, Inc., priority 2018, dated 2024).

How the values were obtained:
[1] = tested on: PMN-MDSC (CD11b+Ly6G+Ly6Clo); experiment: Flow cytometry of PMN-MDSC in tumor-bearing mice; format: in vivo
Text: (§1) Flow cytometry analysis was used to assess the effect of NLRP3 inhibition on the activation and expansion of MDSCs, key mediators of tumor-associated immunosuppression. Bone marrow, spleen, and lymph node-derived cells were isolated and analyzed for the two main MDSCs subtypes: polymorphonuclear MDSCs (PMN-MDSC) expressing CD11b^+Ly6G^+Ly6C^lo and monocytic MDSCs (M-MDSC) expressing CD11b^+Ly6G^−Ly6C^hi. […] In the spleen, the level of PMN-MDSCs in tumor-bearing mice was increased compared to non-tumor-bearing mice (FIG. 4B). However, in mice fed the dapansutrile diet, we observed a restoration of the PMN-MDSC population at the level observed in the non-tumor-bearing mice (FIGS. 4A-4B). […] Treatment with dapansutrile prevented the tumor-induced effect on M-MDSCs expansion, normalizing the population to the non-tumor-bearing mice level (FIGS. 4D-4F).

B16F10 cells = experiment: B16F10 melanoma Matrigel plug tumor growth in mice fed standard or OLT1177 diet; format: in vivo; details: OLT1177 diet 7.5 g/kg food (approx. 100 mg/kg/day) vs standard diet, 15 days after plug instillation; FIG. 1A
Experimental: (§2) C57BL/6J male mice, 6-8 weeks old (The Jackson Laboratory), were fed ad libitum with either a standard diet or a diet containing OLT1177® (dapansutrile) at a dose of 7.5 g per Kg of food for one week before subcutaneous instillation of a mixture of Matrigel and B16F10 cells (2×10^5) on the hind quarter of the mice. The dosage was approximately […] based on feed concentrations of 7.5 g/kg and food consumption of 4 g/day. These diets were continued after tumor implantation. Mice were sacrificed following 15 days from the plug instillation. Tissue and plasma were assessed after 15-day post-inoculation.

IL-6 = experiment: Plasma IL-6 in B16F10 tumor-bearing mice; format: in vivo; details: OLT1177 diet vs standard diet, day 15, FIG. 1B
Experimental: (§3) Cytokine measurements. Cytokines in supernatants and cell lysates were measured by specific ELISA according to the manufacturer's instructions (DuoSet, R&D Systems, Minneapolis, MN).
as §2

NLRP3 inflammasome = NLRP3 inflammasome (Homo sapiens, UniProt Q96P20); details: reference 9; cited from earlier work
VEGF = experiment: Plasma VEGF in tumor-bearing mice (tumor angiogenesis model); format: in vivo; details: 7 days after plug, OLT1177 diet vs standard diet, FIG. 2A
Experimental: (§4) Tumor Angiogenesis Model. A mixture of Matrigel and B16F10 (2×10^5) was inoculated s.c. in the interscapular area of mice fed standard or OLT1177® diet. Following 7 days from the implantation, the plugs were removed, fixed in 4% paraformaldehyde, embedded in paraffin and sectioned (4 μm). Following, the sections were de-paraffinized, hydrated and stained with hematoxylin/eosin. Separate sections were subjected to heat-induced antigen retrieval (10 mM Citrate 0.05% Tween 20-pH 6.0) at 95° C. for 15 min. The sections were then placed in a humidified slide chamber, blocked for 1 h in 10% normal donkey serum (Jackson Immunologicals) and immunostained using an antibody for Von Willebrand factor (1:100, Millipore-Sigma, Burlington, MA) overnight at 4° C. for identification of new vessel formation. Anti-rabbit horseradish peroxidase enzyme (HRP) conjugated antibody (1:100, Jackson ImmunoResearch Laboratories, West Grove, PA) were used as secondary antibody for 2 hours at room temperature. […]
We next determined the ability of dapansutrile on inhibition of angiogenesis, an acquired ability of tumor cells to sustain a blood supply to nourish the growing tumor mass. […] After seven days to allow endothelial cell infiltration, plugs were removed, and plasma VEGF levels were determined.

[2] = healthy subjects, reference 9; cited from earlier work
[3] = tested on: M-MDSC (CD11b+Ly6G−Ly6Chi); experiment: Flow cytometry of M-MDSC in tumor-bearing mice; format: in vivo; details: tumor-bearing mice on dapansutrile diet, relative to non-tumor-bearing mice
Text: as §1

G-CSF = experiment: Plasma G-CSF in B16F10 tumor-bearing mice; format: in vivo; details: OLT1177 diet vs standard diet, day 15, FIG. 1C
Experimental: as §3, §2

HUVEC = experiment: Angiogenesis assay (HUVEC) with melanoma conditioned media from 1205Lu cells; format: cell-based, human; details: MCM from 1205Lu cells treated with OLT1177 vs MCM, 5 hours on Matrigel; FIG. 2C
Experimental: Cell culture. 1205Lu human melanoma cells were cultured in RPMI. Each was supplemented with 10% FBS, 100 units/mL penicillin, 0.1 mg/ml streptomycin. Cells were maintained in a humidified 5% CO2 atmosphere at 37 C. Human metastatic melanoma cell line 1205Lu were plated in RPMI at 2.5×10^5 per well in a 24-wells plate and allowed to adhere overnight. The following day, media was replaced with fresh RPMI 10% FBS with or without OLT1177® (dapansutrile). For the induction of cytokine production IL-1α (20 ng/ml) was used. OLT1177® was added 30 minutes prior to stimulation. Supernatants were collected, in both unstimulated and stimulated conditions at 24 hours.
Angiogenesis assay (HUVEC). HUVEC cells were seeded on media with no growth factors overnight. Cells were plated onto Matrigel (Corning) coated wells at 8×10^4 cells per well in a 24 well plate. Cells were then incubated for 5 hours in the presence of HUVEC complete media (control), MCM or MCM in which 1205Lu cells were treated with OLT1177®. MCM was added without dilution. Media was then removed and matrigel was preserved in PFA4%. Pictures were taking at 40× and branching points were counted using the cross method.
The effects of dapansutrile on angiogenesis was determined in vitro using human umbilical vein endothelial cells (HUVEC). […]

IL-17 = experiment: Intracellular cytokine staining for IL-17 in spleen-derived T cells of tumor-bearing mice; format: in vivo; details: OLT1177 diet vs standard diet, FIG. 1E
Experimental: as §2

B16F10-GFP cells = experiment: Metastasis model: i.v. B16F10-GFP cells, GFP+ cell counts in lung and liver; format: in vivo, mice; details: 21 days after i.v. B16F10-GFP, OLT1177 diet vs standard diet
Experimental: Metastasis Model. Metastasis formation was determined following tail intravenous (i.v.) injection of B16F10-GFP (1×10^6) cells in mice fed standard or OLT1177® diet. Before injection, the B16F10-GFP+ cells were sorted by flow cytometry and only the top brightest 10% cells were injected. Mice were sacrificed after 21 days from the cell injection and lung and liver were isolated and prepared for histology. Previous isolation, lungs were inflated with a solution containing 0.5% low melting agarose to avoid the tissue from collapsing. The presence of GFP-positive cell in the lung and liver of tumor bearing mice were performed by fluorescent microscopy. Tissue sections were stained with Alexa Fluor conjugated WGA, for membranes detection and DAPI, for nuclear stain. Images were acquired blindly and randomly across the tissue sections to obtain 7-10 images per tissue section. GFP positive cells were counted in each image and the results reported as number of GFP+ cells/field area (full chip field).
To determine whether dapansutrile reduces tissue invasion and metastasis, B16F10-GFP labeled cells were injected intravenously in mice fed with standard or OLT1177® diets.

[4] = tested on: Von Willebrand Factor stained endothelial cells; experiment: Tumor angiogenesis model: Von Willebrand Factor staining of B16F10 Matrigel plugs; format: in vivo, mice; details: 7 days after implantation, OLT1177 diet vs standard diet; FIG. 2B
Experimental: as §4, with “temperature. Sections were then incubated for 5-10 min with HRP substrate as directed by the manufacturer's instructions (NovaRED substrate, Vector Laboratories, Burlingame, CA). Nuclei counterstaining were achieved using Mayer's Hematoxylin counterstaining (Thermo Fisher scientific Waltham, MA).” for “temperature.”

IL-22 = experiment: Intracellular cytokine staining for IL-22 in spleen-derived T cells of tumor-bearing mice; format: in vivo; details: OLT1177 diet vs standard diet, FIG. 1D
Experimental: as §2

NLRP3 inflammasome, sequence (Q96P20 whole entry): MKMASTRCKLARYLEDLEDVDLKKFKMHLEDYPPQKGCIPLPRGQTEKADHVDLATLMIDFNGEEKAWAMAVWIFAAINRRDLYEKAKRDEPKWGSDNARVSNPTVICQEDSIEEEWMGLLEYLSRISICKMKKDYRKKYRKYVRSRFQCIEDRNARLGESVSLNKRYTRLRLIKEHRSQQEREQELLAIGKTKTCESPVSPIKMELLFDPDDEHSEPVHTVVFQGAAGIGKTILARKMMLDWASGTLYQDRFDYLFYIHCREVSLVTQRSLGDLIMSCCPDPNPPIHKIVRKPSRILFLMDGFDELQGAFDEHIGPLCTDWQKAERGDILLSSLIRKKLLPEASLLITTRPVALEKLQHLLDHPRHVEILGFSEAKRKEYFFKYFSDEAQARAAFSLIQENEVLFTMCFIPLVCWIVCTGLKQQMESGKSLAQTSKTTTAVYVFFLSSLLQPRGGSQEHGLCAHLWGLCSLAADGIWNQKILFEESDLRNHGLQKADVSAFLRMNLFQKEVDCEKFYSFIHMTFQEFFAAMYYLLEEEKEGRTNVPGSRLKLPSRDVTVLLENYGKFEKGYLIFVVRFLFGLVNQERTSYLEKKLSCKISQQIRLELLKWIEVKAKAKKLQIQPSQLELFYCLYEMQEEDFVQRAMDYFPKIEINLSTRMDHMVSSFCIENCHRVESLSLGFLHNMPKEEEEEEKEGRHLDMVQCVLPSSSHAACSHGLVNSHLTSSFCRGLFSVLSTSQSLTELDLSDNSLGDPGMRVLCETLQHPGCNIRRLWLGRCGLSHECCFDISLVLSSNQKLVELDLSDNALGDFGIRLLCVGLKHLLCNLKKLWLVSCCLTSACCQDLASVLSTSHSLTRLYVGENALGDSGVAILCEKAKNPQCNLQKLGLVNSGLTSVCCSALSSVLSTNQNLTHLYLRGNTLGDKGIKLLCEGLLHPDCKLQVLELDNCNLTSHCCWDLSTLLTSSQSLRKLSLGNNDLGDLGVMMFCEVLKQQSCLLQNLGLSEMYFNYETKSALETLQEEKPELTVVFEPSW

## CS(=O)(=O)CCC#N [OLT1177®, 3-methanesulfonyl-propionitrile]
[1]; dapansutrile diet vs standard diet, FIG. 4C
  PMN-MDSCs in lymph nodes: reduction
[1]; tumor-bearing mice on dapansutrile diet, relative to non-tumor-bearing mice, FIG. 4A
  PMN-MDSC population in bone marrow: restoration
[1]; tumor-bearing mice on dapansutrile diet, relative to non-tumor-bearing mice, FIG. 4B
  PMN-MDSC population in spleen: restoration
B16F10 cells
  tumor volume: reduced
IL-6
  plasma levels of IL-6: significantly reduced
NLRP3 inflammasome
  inhibition of the NLRP3 inflammasome: selectively inhibit
VEGF
  circulating VEGF levels: significantly lower
[2]
  safety when orally administered: safe
[3]; FIG. 4D
  M-MDSC population in bone marrow: normalizing
[3]; FIG. 4E
  M-MDSC population in spleen: normalizing
[3]; FIG. 4F
  M-MDSC population in lymph nodes: normalizing
G-CSF
  plasma levels of G-CSF: significantly reduced
HUVEC
  HUVEC orientation (number of branching points / tubular-like structures): significantly reduced
IL-17
  IL-17 (ICCS, spleen-derived T cells): No changes
B16F10-GFP cells; p<0.0001, FIG. 3A
  reduction of number of GFP+ cells in the lungs: 66%
B16F10-GFP cells; p<0.001, FIG. 3B
  change in number of GFP+ cells in the liver: −60%
[4]
  VWF stained endothelial cells in matrigel plugs (new vessel formation): reduced
IL-22
  IL-22 levels (ICCS, spleen-derived T cells): reduced
